# Read-outs that look alike come from different tables or passages of the source. Marks after values point to notes of the source that are not given here.
# System: human osteosarcoma DM113
# Format: in vivo
# Method: The resultant solution contains 10 mg/mL of cabazitaxel. Stock solution of cabazitaxel was then diluted in 0.9% sodium chloride.
# This efficacy may be quantified, for example, as changes in tumor volume for each treated (T) and control (C) group, which are calculated for each animal and each day by subtracting the tumor volume on the day of first treatment (staging day) from the tumor volume on the specified observation day. This allows calculating the tumor growth inhibition: ΔT/ΔC=(median delta T/median delta C)×100. Individual tumor volume changes from baseline are thereafter analyzed by a non-parametric two-way ANOVA-TYPE (with factors: group and repeated days) followed by a post-hoc contrasts analysis, with Bonferroni-Holm adjustment for multiplicity, comparing all treated groups to the control group. […] A probability less than 5% (p<0.05) was considered as significant.
# Based on the National Cancer Institute (NCl) standards, a ΔT/ΔC≦40% is the minimal level required to declare activity.
# This efficacy may also be quantified by the number of tumor regressions observed after therapy. Individual mice reporting a tumor volume ≦50% of the Day 0 measurement for two consecutive measurements over a seven day period were considered partial responders (PR). Individual mice lacking palpable tumors (<4×4 mm^2 for two consecutive measurements over a seven day period) were classified as complete responders (CR); a CR that persisted until study completion was considered a tumor-free survivor (TFS).
# Efficacy could also be determined at study completion, using tumor growth delay (T-C) in days, which is calculated using the median time to endpoint (MTTE) value for each treatment (T) group versus control (C). A Log Rank multiple comparison test with Bonferroni-Holm adjustment for multiplicity was applied on individual TTE to compare the treated groups to the control group.
# The animals subjected to the experiment are subcutaneously grafted unilaterally with approximately 30 mg of a tumor fragment from low passage pediatric patient-derived tumor xenografts. The animals are implanted with a human patient-derived pediatric tumor xenografted in immuno-compromised mice (Harlan; nu/nu). Several days post tumor implantation, mice are randomized according to their tumor burden to the different groups of treatments and controls. The agents are dosed intravenously at 5.8, 9.3, 15 or 24.2 mg/kg every 4 days for a total of 3 doses (q4d×3) to mice bearing a tumor burden at start of therapy (day 0) ranged from 125 to 250 mm^3.
# Beginning Day 0, animals were observed daily and weighed twice weekly using a digital scale; data including individual and mean gram weights (Mean We±SD), mean percent weight change versus Day 0 were recorded for each group. Animal deaths were recorded daily and designated as drug-related (D), technical (T), tumor related (B), or unknown (U) based on weight loss and gross observation; single agent or combination groups reporting a mean >20% for a period of 7 days and/or >10% mortality were considered above the maximum tolerated dose (MTD) for that treatment on the evaluated regimen.
# The selected tumor model, DM113, was a low passage patient-derived tumor xenograft derived from an osteosarcoma taken from the lung of a patient.
# The following end points were used: • Toxicity was declared at dosages inducing ≧20% body weight loss or ≧10% drug death; • Antitumor efficacy was determined by calculating the ΔT/ΔC value in percent on day 28 post treatment initiation, according to the above mentioned formula; • Individual tumor volume changes from baseline were analyzed by a non-parametric two-way ANOVA-TYPE (with factors: group and repeated day from 3 to 28) followed by a post-hoc contrasts analysis, with Bonferroni-Holm adjustment for multiplicity, comparing all treated groups to the control group on day 28. […] The volume endpoint for T-C calculations was chosen to be 1600 mm^3.
# [1] = 5.8 mg/kg i.v./q4dx3, volume endpoint 1600 mm^3
# [2] = 9.3 mg/kg i.v./q4dx3, volume endpoint 1600 mm^3
# [3] = 15 mg/kg i.v./q4dx3, volume endpoint 1600 mm^3
# [4] = 24.2 mg/kg i.v./q4dx3, volume endpoint 1600 mm^3
smiles,measurement,setting,value
"CC(=O)O[C@@]12CO[C@@H]1C[C@H](O)[C@@]1(C)C(=O)[C@H](O)C3=C(C)[C@@H](OC(=O)[C@H](O)[C@@H](NC(=O)OC(C)(C)C)c4ccccc4)C[C@@](O)([C@@H](OC(=O)c4ccccc4)[C@H]21)C3(C)C [Docetaxel, docetaxel]",#CR,5.8 mg/kg i.v./q4dx3,0/0/0
same,#PR,5.8 mg/kg i.v./q4dx3,0/0/0
same,#TFS,5.8 mg/kg i.v./q4dx3,0/0/0
same,Drug Deaths Total,5.8 mg/kg i.v./q4dx3,0
same,Weight Nadir %,5.8 mg/kg i.v./q4dx3,−2%
same,Weight Nadir Day,5.8 mg/kg i.v./q4dx3,3
same,Tumor Volume Data (Day 28) Median,"5.8 mg/kg i.v./q4dx3, day 28",598 mm^3
same,ΔT/ΔC %,"5.8 mg/kg i.v./q4dx3, day 28",42.9%
same,MTTE,[1],41 days
same,T-C,[1],9 days
same,ΔT/ΔC,"5.8 mg/kg q4d×3 IV, day 28",42.9%
same,tumor growth delay (T-C),"5.8 mg/kg q4d×3 IV, volume endpoint 1600 mm^3",9 days
same,"tumor volume changes from baseline, Median +/− MAD","5.8 mg/kg, DAY 3",22.5 +/− 22.5
same,"tumor volume changes from baseline, Median +/− MAD","5.8 mg/kg, DAY 8",95 +/− 22.5
same,"tumor volume changes from baseline, Median +/− MAD","5.8 mg/kg, DAY 11",117.5 +/− 45
same,"tumor volume changes from baseline, Median +/− MAD","5.8 mg/kg, DAY 14",189 +/− 60.5
same,"tumor volume changes from baseline, Median +/− MAD","5.8 mg/kg, DAY 17",242.5 +/− 110
same,"tumor volume changes from baseline, Median +/− MAD","5.8 mg/kg, DAY 21",278.5 +/− 142
same,"tumor volume changes from baseline, Median +/− MAD","5.8 mg/kg, DAY 24",435 +/− 159
same,"tumor volume changes from baseline, Median +/− MAD","5.8 mg/kg, DAY 28",487 +/− 231.5
same,"tumor volume changes from baseline, Median +/− MAD","5.8 mg/kg, DAY 31",598 +/− 204
same,"tumor volume changes from baseline, Median +/− MAD","5.8 mg/kg, DAY 35",813 +/− 367
same,"tumor volume changes from baseline, Median +/− MAD","5.8 mg/kg, DAY 38",960 +/− 388
same,"tumor volume changes from baseline, Median +/− MAD","5.8 mg/kg, DAY 42",1032 +/− 326
same,"tumor volume changes from baseline, Median +/− MAD","5.8 mg/kg, DAY 46",1340 +/− 384
same,#CR,9.3 mg/kg i.v./q4dx3,0
same,#PR,9.3 mg/kg i.v./q4dx3,1
same,#TFS,9.3 mg/kg i.v./q4dx3,0
same,Drug Deaths Total,9.3 mg/kg i.v./q4dx3,0*
same,Weight Nadir %,9.3 mg/kg i.v./q4dx3,−3%
same,Weight Nadir Day,9.3 mg/kg i.v./q4dx3,17
same,Tumor Volume Data (Day 28) Median,"9.3 mg/kg i.v./q4dx3, day 28",442 mm^3
same,ΔT/ΔC %,"9.3 mg/kg i.v./q4dx3, day 28",27.4%
same,MTTE,[2],49 days
same,T-C,[2],17 days
same,"tumor volume changes from baseline, Median +/− MAD","9.3 mg/kg, DAY 3",56.5 +/− 26.5
same,"tumor volume changes from baseline, Median +/− MAD","9.3 mg/kg, DAY 8",85.5 +/− 27
same,"tumor volume changes from baseline, Median +/− MAD","9.3 mg/kg, DAY 11",73 +/− 42.5
same,"tumor volume changes from baseline, Median +/− MAD","9.3 mg/kg, DAY 14",85.5 +/− 34.5
same,"tumor volume changes from baseline, Median +/− MAD","9.3 mg/kg, DAY 17",117.5 +/− 51.5
same,"tumor volume changes from baseline, Median +/− MAD","9.3 mg/kg, DAY 21",140.5 +/− 52
same,"tumor volume changes from baseline, Median +/− MAD","9.3 mg/kg, DAY 24",239 +/− 94.5
same,"tumor volume changes from baseline, Median +/− MAD","9.3 mg/kg, DAY 28",311 +/− 75.5
same,"tumor volume changes from baseline, Median +/− MAD","9.3 mg/kg, DAY 31",390 +/− 90.5
same,"tumor volume changes from baseline, Median +/− MAD","9.3 mg/kg, DAY 35",545 +/− 52
same,"tumor volume changes from baseline, Median +/− MAD","9.3 mg/kg, DAY 38",677 +/− 118
same,"tumor volume changes from baseline, Median +/− MAD","9.3 mg/kg, DAY 42",827.5 +/− 293.5
same,"tumor volume changes from baseline, Median +/− MAD","9.3 mg/kg, DAY 46",1187 +/− 347.5
same,#CR,15 mg/kg i.v./q4dx3,0/0/0
same,#PR,15 mg/kg i.v./q4dx3,0/0/0
same,#TFS,15 mg/kg i.v./q4dx3,0/0/0
same,Drug Deaths Total,15 mg/kg i.v./q4dx3,0
same,Weight Nadir %,15 mg/kg i.v./q4dx3,−8%
same,Weight Nadir Day,15 mg/kg i.v./q4dx3,17
same,Tumor Volume Data (Day 28) Median,"15 mg/kg i.v./q4dx3, day 28",178 mm^3
same,ΔT/ΔC %,"15 mg/kg i.v./q4dx3, day 28",3.2%
same,MTTE,[3],>59 days
same,T-C,[3],>28 days
same,numbers of PR,15 mg/kg q4d×3 IV,0/10
same,"tumor volume changes from baseline, Median +/− MAD","15 mg/kg, DAY 3",26 +/− 26
same,"tumor volume changes from baseline, Median +/− MAD","15 mg/kg, DAY 8",26 +/− 26
same,"tumor volume changes from baseline, Median +/− MAD","15 mg/kg, DAY 11",13 +/− 16.5
same,"tumor volume changes from baseline, Median +/− MAD","15 mg/kg, DAY 14",13 +/− 16.5
same,"tumor volume changes from baseline, Median +/− MAD","15 mg/kg, DAY 17",13 +/− 16.5
same,"tumor volume changes from baseline, Median +/− MAD","15 mg/kg, DAY 21",0 +/− 19
same,"tumor volume changes from baseline, Median +/− MAD","15 mg/kg, DAY 24",22.5 +/− 23.5
same,"tumor volume changes from baseline, Median +/− MAD","15 mg/kg, DAY 28",36.5 +/− 35.5
same,"tumor volume changes from baseline, Median +/− MAD","15 mg/kg, DAY 31",42.5 +/− 29.5
same,"tumor volume changes from baseline, Median +/− MAD","15 mg/kg, DAY 35",61 +/− 61
same,"tumor volume changes from baseline, Median +/− MAD","15 mg/kg, DAY 38",61 +/− 81
same,"tumor volume changes from baseline, Median +/− MAD","15 mg/kg, DAY 42",107 +/− 90
same,"tumor volume changes from baseline, Median +/− MAD","15 mg/kg, DAY 46",155 +/− 153
same,#CR,24.2 mg/kg i.v./q4dx3,0
same,#PR,24.2 mg/kg i.v./q4dx3,1
same,#TFS,24.2 mg/kg i.v./q4dx3,0
same,Drug Deaths Total,24.2 mg/kg i.v./q4dx3,0
same,Weight Nadir %,24.2 mg/kg i.v./q4dx3,−13%
same,Weight Nadir Day,24.2 mg/kg i.v./q4dx3,17
same,ΔT/ΔC %,"24.2 mg/kg i.v./q4dx3, day 28",0%
same,MTTE,[4],>59 days
same,T-C,[4],>28 days
same,numbers of PR,24.2 mg/kg q4d×3 IV,1/10
same,"tumor volume changes from baseline, Median +/− MAD","24.2 mg/kg, DAY 3",29.5 +/− 13.5
same,"tumor volume changes from baseline, Median +/− MAD","24.2 mg/kg, DAY 8",22.5 +/− 22.5
same,"tumor volume changes from baseline, Median +/− MAD","24.2 mg/kg, DAY 11",0 +/− 22
same,"tumor volume changes from baseline, Median +/− MAD","24.2 mg/kg, DAY 14",−9.5 +/− 35
same,"tumor volume changes from baseline, Median +/− MAD","24.2 mg/kg, DAY 17",−9.5 +/− 26
same,"tumor volume changes from baseline, Median +/− MAD","24.2 mg/kg, DAY 21",−9.5 +/− 26
same,"tumor volume changes from baseline, Median +/− MAD","24.2 mg/kg, DAY 24",0 +/− 0
same,"tumor volume changes from baseline, Median +/− MAD","24.2 mg/kg, DAY 28",0 +/− 9.5
same,"tumor volume changes from baseline, Median +/− MAD","24.2 mg/kg, DAY 31",0 +/− 9.5
same,"tumor volume changes from baseline, Median +/− MAD","24.2 mg/kg, DAY 35",0 +/− 9.5
same,"tumor volume changes from baseline, Median +/− MAD","24.2 mg/kg, DAY 38",0 +/− 9.5
same,"tumor volume changes from baseline, Median +/− MAD","24.2 mg/kg, DAY 42",0 +/− 9.5
same,"tumor volume changes from baseline, Median +/− MAD","24.2 mg/kg, DAY 46",50.5 +/− 47.5

# Reference: patent publication US20140350273A1, “PEDIATRIC USES OF CABAZITAXEL” (AVENTIS PHARMA S.A., priority 2012, published 2014)
